This is an account of results in PubChem BioAssay (NCI).

Some test systems named below: NCI/ADR-RES ovarian; SF-539 CNS; KM12 colon; SW-620 colon; 786-0 renal; OVCAR-5 ovarian; HT29 colon; OVCAR-8 ovarian; HCT-116 colon; SF-295 CNS; LOX IMVI melanoma; SF-268 CNS; MDA-N; MALME-3M melanoma; UACC-257 melanoma; RPMI-8226 leukemia; HCC-2998 colon; K-562 leukemia; HOP-92 NSCLC.
Experiment in all cases: growth of human tumour cells (NCI), 48 h

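Interpolation was linear, between the two tested concentrations surrounding the appropriate level; five concentrations were tested over 48 hours in 96-well plates. TGI marks complete inhibition of growth.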

For `CCOC(=O)C1(C/C=C/CBr)CCc2ccccc2C1=O` (configuration not stated), the TGI with NCI/ADR-RES ovarian stood at 63.5 µM; with SF-539 CNS it was 36.2 µM; in the experiment on KM12 colon, 30.7 µM; in the experiment with SW-620 colon, 30.3 µM; in the experiment with 786-0 renal it was 31.2 µM; in the experiment on OVCAR-5 ovarian, 70.2 µM. Moreover, the TGI with HT29 colon came out at 52.3 µM; in the experiment on OVCAR-8 ovarian it was 36.7 µM; in the experiment on HCT-116 colon it was 26.2 µM; with SF-295 CNS, 32.9 µM; in the experiment on LOX IMVI melanoma, 27.5 µM; with SF-268 CNS, 46 µM. For the same compound, the TGI in the experiment with MDA-N is 30.3 µM; in the experiment with MALME-3M melanoma, 41.3 µM; in the experiment with UACC-257 melanoma, 34.8 µM.

On to `Cc1ccccc1N/C(=C(/C(Cl)=C(Cl)Cl)[N+](=O)[O-])n1nnc2ccccc21`, for which the TGI in the experiment with NCI/ADR-RES ovarian is 49.5 µM; in the experiment on SF-539 CNS it was 39.1 µM; in the experiment on RPMI-8226 leukemia, > 100 µM; in the experiment with KM12 colon, 29.4 µM; in the experiment with SW-620 colon it was 29.4 µM; with 786-0 renal it was > 100 µM. Moreover, the TGI was 35.8 µM in the experiment on HCC-2998 colon; 33.6 µM in the experiment with OVCAR-5 ovarian; 35.5 µM in the experiment on HT29 colon; > 100 µM with HCT-116 colon; 28.8 µM with SF-295 CNS; 30.8 µM with SF-268 CNS. Also, the TGI in the experiment with MALME-3M melanoma was 27.9 µM; with K-562 leukemia it was > 100 µM; with UACC-257 melanoma, > 100 µM.

Consider `CN(C)CCNC(=O)c1ccc2nc3c(nc2c1)C(=O)c1ccccc1-3`, for which the TGI in the experiment on SF-539 CNS was > 100 µM; in the experiment with RPMI-8226 leukemia it was 63.3 µM; in the experiment with KM12 colon, > 100 µM; in the experiment with SW-620 colon, > 100 µM; in the experiment on 786-0 renal, > 100 µM; in the experiment with HCC-2998 colon, > 100 µM. Also, the TGI was > 100 µM in the experiment with OVCAR-5 ovarian; 81.5 µM in the experiment with HT29 colon; > 100 µM in the experiment on HOP-92 NSCLC; > 100 µM with OVCAR-8 ovarian; > 100 µM in the experiment on HCT-116 colon; > 100 µM in the experiment with SF-295 CNS. Also, the TGI in the experiment on LOX IMVI melanoma is 73.4 µM; in the experiment on SF-268 CNS, > 100 µM; in the experiment on MDA-N, 33.6 µM; with MALME-3M melanoma it was 82.3 µM; with UACC-257 melanoma it was > 100 µM.

Regarding `N#Cc1[nH]c(=S)[nH]c1N`, the TGI in the experiment with NCI/ADR-RES ovarian, in the experiment on SF-539 CNS, in the experiment with SW-620 colon, in the experiment with 786-0 renal, in the experiment with HCC-2998 colon and with OVCAR-5 ovarian was > 100 µM throughout. The TGI with HT29 colon, with HOP-92 NSCLC, in the experiment on OVCAR-8 ovarian, with HCT-116 colon, in the experiment with SF-295 CNS and in the experiment with LOX IMVI melanoma was > 100 µM each time. Further, the TGI in the experiment on SF-268 CNS, in the experiment with MALME-3M melanoma, with K-562 leukemia and in the experiment on UACC-257 melanoma was > 100 µM in each case.

Turning to `COc1ccc2c(c1)nc1n2C(c2c(Cl)cccc2Cl)SC1` (configuration not stated), the TGI is > 52.5 µM in the experiment with NCI/ADR-RES ovarian; > 100 µM with SF-539 CNS; > 100 µM in the experiment with RPMI-8226 leukemia; > 100 µM in the experiment on KM12 colon; > 53.8 µM with SW-620 colon; > 100 µM in the experiment on 786-0 renal. For the same compound, the TGI with HCC-2998 colon is > 86.8 µM; in the experiment with OVCAR-5 ovarian, > 100 µM; in the experiment on HT29 colon, 85.9 µM; in the experiment with HOP-92 NSCLC, > 100 µM; with OVCAR-8 ovarian, > 100 µM; in the experiment with HCT-116 colon, > 81.2 µM. For the same compound, the TGI with SF-295 CNS was > 70.4 µM; in the experiment with LOX IMVI melanoma it was > 100 µM; with SF-268 CNS, > 100 µM; with MALME-3M melanoma, 14.5 µM; in the experiment with K-562 leukemia, > 100 µM; in the experiment on UACC-257 melanoma, > 100 µM.

As for `COc1ccc2c(c1)C(=O)OCCC2`, the TGI in the experiment with NCI/ADR-RES ovarian, with SF-539 CNS, with RPMI-8226 leukemia, with KM12 colon, in the experiment with SW-620 colon and with 786-0 renal was > 100 µM throughout. Moreover, the TGI in the experiment with HCC-2998 colon, in the experiment on OVCAR-5 ovarian, in the experiment with HT29 colon, in the experiment on HOP-92 NSCLC, in the experiment with OVCAR-8 ovarian and in the experiment on HCT-116 colon was > 100 µM throughout. Moreover, the TGI in the experiment on SF-295 CNS, in the experiment with SF-268 CNS, with K-562 leukemia and with UACC-257 melanoma was > 100 µM throughout.

In the case of `COc1cc(C(C)=O)cc(C(=O)N(C(C)C)C(C)C)c1[Si](C)(C)C`, the TGI in the experiment with SF-539 CNS, in the experiment on KM12 colon, in the experiment on SW-620 colon, with 786-0 renal, with HOP-92 NSCLC and with OVCAR-8 ovarian was > 100 µM in each case. Besides, the TGI with HCT-116 colon, in the experiment on SF-295 CNS, in the experiment on LOX IMVI melanoma, in the experiment on SF-268 CNS, in the experiment with MDA-N and with UACC-257 melanoma was > 100 µM throughout.

`COC(=O)C1=C(C(=O)Nc2cccnc2Cl)N(c2ccc(OC)cc2[N+](=O)[O-])C(c2ccc(C)cc2)=CC1c1ccc(OC)cc1OC` (configuration not stated): the TGI in the experiment with NCI/ADR-RES ovarian is 47.5 µM; in the experiment with SF-539 CNS, 16.7 µM; in the experiment on RPMI-8226 leukemia it was 21.5 µM; with KM12 colon, 16.3 µM; in the experiment with SW-620 colon, 22.7 µM; in the experiment with 786-0 renal, > 87.7 µM. The TGI is 27.8 µM with HCC-2998 colon; > 84.9 µM in the experiment with OVCAR-5 ovarian; 47.9 µM with HT29 colon; > 100 µM in the experiment with HOP-92 NSCLC; 31.1 µM in the experiment on OVCAR-8 ovarian; 98.7 µM in the experiment with HCT-116 colon. The TGI is > 100 µM with SF-295 CNS; 17 µM in the experiment with LOX IMVI melanoma; 78.5 µM with SF-268 CNS; 53.3 µM with MALME-3M melanoma; > 100 µM with K-562 leukemia; > 100 µM with UACC-257 melanoma.
